Laboratory results taken from the supplement of paper PMC10627819.

How the values were obtained:
Experiment in all cases: fitness (endpoint OD595 vs no drug) (fraction); higher = more growth
B. subtilis 168 = tested on: B. subtilis 168
Summary of the method: (§1)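 Fitness expresses the optical density reached at the stationary-phase transition as a fraction of the robust mean of no-drug control wells. It is capped at 1. Measurements were OD595 every 30 min for 14 h at 37 °C after inoculation of 384-well plates at OD595 0.01 (30 µl, or 55 µl for S. pneumoniae), minus the first reading.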

S. aureus DSM 20231 = tested on: S. aureus DSM 20231
Summary of the method: as §1

S. aureus Newman = tested on: S. aureus Newman
Summary of the method: as §1
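Also: OD595 on entry to stationary phase over no-drug wells; at most 1.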

N[C@@H]1CONC1=O [Cycloserine D] + COc1c(N2C[C@@H]3CCCN[C@@H]3C2)c(F)cc2c(=O)c(C(=O)O)cn(C3CC3)c12 [Moxifloxacin]
fitness
Conditions | first compound 0.125 µg/mL | first compound 0.25 µg/mL | first compound 0.375 µg/mL | first compound 0.5 µg/mL | first compound 0.75 µg/mL | first compound 1.5 µg/mL
B. subtilis 168, partner 0.0312 µg/mL | 0.0481 | 0.0489 | – | 0.0432 | – | –
B. subtilis 168, partner 0.0625 µg/mL | 0.033 | 0.034 | – | 0.028 | – | –
B. subtilis 168, partner 0.125 µg/mL | 0.0229 | 0.0218 | – | 0.03 | – | –
B. subtilis 168, partner 2 µg/mL | 0.0539 | 0.0355 | – | 0.0265 | – | –
B. subtilis 168, partner 4 µg/mL | 0.0542 | 0.0318 | – | 0.0298 | – | –
B. subtilis 168, partner 8 µg/mL | 0.04 | 0.0429 | – | 0.0319 | – | –
S. aureus DSM 20231, partner 0.0075 µg/mL | – | – | 0.827 | – | 0.85 | 0.844
S. aureus DSM 20231, partner 0.015 µg/mL | – | – | 0.713 | – | 0.712 | 0.687
S. aureus DSM 20231, partner 0.03 µg/mL | – | – | 0.575 | – | 0.586 | 0.564
S. aureus Newman, partner 0.0075 µg/mL | – | – | 0.761 | – | 0.753 | 0.705
S. aureus Newman, partner 0.015 µg/mL | – | – | 0.599 | – | 0.552 | 0.586
S. aureus Newman, partner 0.03 µg/mL | – | – | 0.119 | – | 0.0631 | 0.06

fitness, S. aureus DSM 20231, one replicate
Conditions | first compound 0.375 µg/mL | first compound 0.75 µg/mL | first compound 1.5 µg/mL
partner 0.06 µg/mL | 0.658 | 0.656 | 0.654
partner 0.12 µg/mL | 0.483 | 0.518 | 0.483

N[C@@H]1CONC1=O [Cycloserine D] + COc1ccc(C[C@H](N)C(=O)N[C@H]2[C@@H](O)[C@H](n3cnc4c(N(C)C)ncnc43)O[C@@H]2CO)cc1 [Puromycin]
fitness
Conditions | first compound 0.125 µg/mL | first compound 0.25 µg/mL | first compound 0.375 µg/mL | first compound 0.5 µg/mL | first compound 0.75 µg/mL | first compound 1.5 µg/mL
B. subtilis 168, partner 0.39 µg/mL | 0.958 | 0.889 | – | 0.955 | – | –
B. subtilis 168, partner 0.78 µg/mL | 0.931 | 0.894 | – | 0.968 | – | –
B. subtilis 168, partner 1.56 µg/mL | 0.959 | 0.929 | – | 0.915 | – | –
S. aureus DSM 20231, partner 0.39 µg/mL | – | – | ≥ 1 | – | ≥ 1 | ≥ 1
S. aureus DSM 20231, partner 0.78 µg/mL | – | – | ≥ 1 | – | ≥ 1 | ≥ 1
S. aureus DSM 20231, partner 1.56 µg/mL | – | – | 1 | – | ≥ 1 | ≥ 1
S. aureus Newman, partner 0.39 µg/mL | – | – | ≥ 1 | – | ≥ 1 | ≥ 1
S. aureus Newman, partner 0.78 µg/mL | – | – | 0.999 | – | 0.977 | 0.989
S. aureus Newman, partner 1.56 µg/mL | – | – | ≥ 1 | – | 0.998 | ≥ 1

fitness, S. aureus DSM 20231, one replicate
Conditions | first compound 0.375 µg/mL | first compound 0.75 µg/mL | first compound 1.5 µg/mL
partner 3.12 µg/mL | ≥ 1 | ≥ 1 | 0.977
partner 6.24 µg/mL | 0.748 | 0.718 | 0.687

N[C@@H]1CONC1=O [Cycloserine D] + COc1cccc2c1C(=O)c1c(O)c3c(c(O)c1C2=O)C[C@@](O)(C(=O)CO)C[C@@H]3O[C@H]1C[C@H](N)[C@H](O)[C@H](C)O1 [Doxorubicin]
fitness
Conditions | first compound 0.125 µg/mL | first compound 0.25 µg/mL | first compound 0.375 µg/mL | first compound 0.5 µg/mL | first compound 0.75 µg/mL | first compound 1.5 µg/mL
B. subtilis 168, partner 0.625 µg/mL | 0.976 | 0.959 | – | 0.921 | – | –
B. subtilis 168, partner 1.25 µg/mL | 0.919 | 0.939 | – | 0.891 | – | –
B. subtilis 168, partner 2.5 µg/mL | 0.754 | 0.704 | – | 0.722 | – | –
S. aureus DSM 20231, partner 0.625 µg/mL | – | – | 0.942 | – | 0.898 | 0.905
S. aureus DSM 20231, partner 1.25 µg/mL | – | – | 0.867 | – | 0.891 | 0.953
S. aureus DSM 20231, partner 2.5 µg/mL | – | – | 0.861 | – | 0.841 | 0.774
S. aureus Newman, partner 0.625 µg/mL | – | – | 0.796 | – | 0.809 | 0.827
S. aureus Newman, partner 1.25 µg/mL | – | – | 0.797 | – | 0.797 | 0.799
S. aureus Newman, partner 2.5 µg/mL | – | – | 0.748 | – | 0.75 | 0.771

N[C@@H]1CONC1=O [Cycloserine D] + C[C@@H]1O[C@@H]1P(=O)(O)O [Fosfomycin]
fitness
Conditions | first compound 0.125 µg/mL | first compound 0.25 µg/mL | first compound 0.375 µg/mL | first compound 0.5 µg/mL | first compound 0.75 µg/mL | first compound 1.5 µg/mL
B. subtilis 168, partner 1.562 µg/mL | 0.71 | 0.666 | – | 0.679 | – | –
B. subtilis 168, partner 3.124 µg/mL | 0.608 | 0.583 | – | 0.592 | – | –
B. subtilis 168, partner 6.248 µg/mL | 0.479 | 0.504 | – | 0.453 | – | –
S. aureus DSM 20231, partner 0.781 µg/mL | – | – | 0.724 | – | 0.703 | 0.764
S. aureus DSM 20231, partner 1.562 µg/mL | – | – | 0.586 | – | 0.577 | 0.597
S. aureus DSM 20231, partner 3.124 µg/mL | – | – | 0.451 | – | 0.471 | 0.481
S. aureus Newman, partner 0.781 µg/mL | – | – | 0.64 | – | 0.623 | 0.669
S. aureus Newman, partner 1.562 µg/mL | – | – | 0.516 | – | 0.518 | 0.514
S. aureus Newman, partner 3.124 µg/mL | – | – | 0.165 | – | 0.201 | 0.172

N[C@@H]1CONC1=O [Cycloserine D] + C[n+]1ccc(-c2cc[n+](C)cc2)cc1 [Paraquat]
fitness
Conditions | first compound 0.125 µg/mL | first compound 0.25 µg/mL | first compound 0.375 µg/mL | first compound 0.5 µg/mL | first compound 0.75 µg/mL | first compound 1.5 µg/mL
B. subtilis 168, partner 1.25 µg/mL | 0.939 | 0.919 | – | 0.958 | – | –
B. subtilis 168, partner 2.5 µg/mL | 0.911 | 0.905 | – | 0.899 | – | –
B. subtilis 168, partner 5 µg/mL | 0.842 | 0.787 | – | 0.746 | – | –
S. aureus DSM 20231, partner 1.25 µg/mL | – | – | 0.976 | – | 0.978 | 0.964
S. aureus DSM 20231, partner 2.5 µg/mL | – | – | ≥ 1 | – | 0.977 | ≥ 1
S. aureus DSM 20231, partner 5 µg/mL | – | – | 0.977 | – | 0.983 | 0.965
S. aureus Newman, partner 1.25 µg/mL | – | – | 0.962 | – | 0.871 | 0.899
S. aureus Newman, partner 2.5 µg/mL | – | – | 0.979 | – | 0.966 | 0.984
S. aureus Newman, partner 5 µg/mL | – | – | 0.938 | – | 0.969 | 0.93
